{
  "source": "patent US7008945B1",
  "about": "“Amide derivatives” (AstraZeneca AB, priority 1999, dated 2006)",
  "key": {"p38α": {"target": "T1, p38α (Homo sapiens, UniProt Q16539)", "T1 construct": "c-myc (N); 6His (N); made in house; host or cells: E. coli (PET vectors)", "T1 sequence (Q16539 whole entry, canonical isoform)": "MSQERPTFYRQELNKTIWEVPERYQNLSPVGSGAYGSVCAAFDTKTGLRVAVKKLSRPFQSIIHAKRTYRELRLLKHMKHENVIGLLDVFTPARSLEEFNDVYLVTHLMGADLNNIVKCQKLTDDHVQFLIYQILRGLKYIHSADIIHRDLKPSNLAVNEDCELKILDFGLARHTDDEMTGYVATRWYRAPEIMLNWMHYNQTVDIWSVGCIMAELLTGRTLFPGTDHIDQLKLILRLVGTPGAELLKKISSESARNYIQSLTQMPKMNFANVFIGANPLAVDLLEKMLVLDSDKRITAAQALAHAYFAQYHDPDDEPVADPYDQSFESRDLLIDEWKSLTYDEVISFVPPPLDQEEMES", "test": "In vitro enzyme assay, p38α", "assay_type": "biochemical", "conditions": "read-out: IC50 against p38α", "procedure": "(§1) The ability of compounds of the invention to inhibit the enzyme p38 kinase was assessed. Activity of test compounds against each of the p38α and p38β isoforms of the enzyme was determined. […]\n(§2) Test compounds were solubilised in DMSO and 10 μl of a 1:10 diluted sample in ‘Kinase Buffer’ was added to a well in a Microtiter plate. […] The precipitated protein was phosphorylated by p38 kinase and test compounds were assessed for their ability to inhibit this phosphorylation. The plates were filtered using a Canberra Packard Unifilter and washed with 2% TCA, dried overnight and counted on a Top Count scintillation counter.\n(§3) Test compounds were tested initially at a single dose and active compounds were retested to allow IC50 values to be determined."}, "TNFα production": {"system": "TNFα production", "test": "Human Whole Blood test (LPS-stimulated TNFα production)", "assay_type": "cell-based", "conditions": "inhibition of TNFα production in LPS-stimulated human whole blood", "procedure": "The ability of the compounds of this invention to inhibit TNFα production was also assessed in a human whole blood assay. Human whole blood secretes TNFα when stimulated with LPS. This property of blood forms the basis of an assay which is used as a secondary test for compounds which profile as active in the PBMC test.\nHeparinised (10 units/ml) human blood was obtained from volunteers. 160 μl whole blood were added to 96 well round-bottom plates (Corning 25850). Compounds were solubilised and serially diluted in RPMI 1640 medium (Gibco) supplemented with 50 units/ml penicillin, 50 μg/ml streptomycin and 2 mM glutamine, as detailed above. 20 μl of each test concentration was added to appropriate wells (triplicate cultures), 20 μl of RPMI 1640 medium supplemented with antibiotics and glutamine was added to control wells. Plates were incubated for 30 minutes at 37° C. (humidified incubator), prior to addition of 20 μl LPS (final concentration 10 μg/ml). RPMI 1640 medium was added to control wells. Six “LPS alone” and four “medium alone” controls were included on each plate. A known TNFα synthesis/secretion inhibitor was included in each test. Plates were incubated for 6 hours at 37° C. (humidified incubator). Plates were centrifuged (2000 rpm for 10 minutes) and 100 μl plasma removed and stored at −70° C. (Corning 25850 plates). TNFα levels were measured by ELISA (see WO92/10190 and Current Protocols in Molecular Biology, vol 2 by Frederick M. Ausbel et al., John Wiley and Sons Inc.). The paired antibodies that were used in the ELIZA were obtained from R&D Systems (catalogue nos. MAB610 anti-human TNFA coating antibody, BAF210 biotinylated anti-human TNFα detect antibody)."}, "p38β": {"target": "T2, p38β (Homo sapiens, UniProt Q15759)", "T2 construct": "Human recombinant p38α and p38β isoforms were produced as 5′ c-myc, 6His tagged proteins; fused on or other part: N-terminal c-myc and 6His tags", "T2 sequence (Q15759 whole entry, the tested form may be a part, canonical isoform)": "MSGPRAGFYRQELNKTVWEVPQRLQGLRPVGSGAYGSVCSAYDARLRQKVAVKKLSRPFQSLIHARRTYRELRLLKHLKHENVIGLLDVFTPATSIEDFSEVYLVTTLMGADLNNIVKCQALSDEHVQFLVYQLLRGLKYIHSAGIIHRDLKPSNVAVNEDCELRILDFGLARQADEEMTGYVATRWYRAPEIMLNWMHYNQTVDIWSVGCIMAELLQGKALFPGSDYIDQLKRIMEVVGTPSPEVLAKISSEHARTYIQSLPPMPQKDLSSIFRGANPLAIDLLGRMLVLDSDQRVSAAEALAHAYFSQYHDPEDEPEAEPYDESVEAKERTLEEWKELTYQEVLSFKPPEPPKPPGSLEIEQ", "test": "In vitro enzyme assay, p38β", "assay_type": "biochemical", "conditions": "read-out: IC50 against p38β", "procedure": "as §1, §2, §3"}},
  "data": [
    {"compound": "Cc1ccc(NC(=O)c2ccnc(N3CCOCC3)c2)cc1-n1cnc2ccc(N(C)CCCN(C)C)cc2c1=O", "note": "[6-[N-(3-dimethylaminopropyl)-N-methylamino]-3-[2-methyl-5-(2-morpholinopyrid-4-ylcarbonylamino)phenyl]-3,4-dihydroquinazolin-4-one]", "values": [
      {"measurement": "IC50", "setting": "p38α", "value": "~200", "unit": "nM"},
      {"measurement": "IC50", "setting": "TNFα production", "value": "~2000", "unit": "nM"}
    ]},
    {"compound": "CN(C)CCCN(C)c1ccc2ncn(-c3cccc(NC(=O)c4ccnc(N5CCOCC5)c4)c3)c(=O)c2c1", "note": "[6-[N-(3-dimethylaminopropyl)-N-methylamino]-3-[5-(2-morpholinopyrid-4-ylcarbonylamino)phenyl]-3,4-dihydroquinazolin-4-one]", "values": [
      {"measurement": "IC50", "setting": "p38β", "value": "~50", "unit": "nM"},
      {"measurement": "IC50", "setting": "TNFα production", "value": "~5000", "unit": "nM"}
    ]},
    {"compound": "Cc1ccc(NC(=O)c2ccnc(N3CCOCC3)c2)cc1-n1cnc2c(N(C)CCCN(C)C)cccc2c1=O", "note": "[8-[-(3-dimethylaminopropyl)-N-methylamino]-3-[2-methyl-5-(2-morpholinopyrid-4-ylcarbonylamino)phenyl]-3,4-dihydroquinazolin-4-one]", "values": [
      {"measurement": "IC50", "setting": "p38α", "value": "~100", "unit": "nM"},
      {"measurement": "IC50", "setting": "TNFα production", "value": "~7000", "unit": "nM"}
    ]}
  ]
}
